Experimental data from patent publication US20200392158A1, “INHIBITORS OF LEUCINE RICH REPEAT KINASE 2” (GLAXOSMITHKLINE INTELLECTUAL PROPERTY DEVELOPMENT LIMITED, priority 2017, published 2020).
pIC50: −log10 of the molar value.

Legend:
[1] = molecular target: T1, full length G2019 human LRRK2 (Homo sapiens, UniProt Q5S007, R50H); assay: Full length G2019 human LRRK2 inhibition mass spectrometry assay; assay type: biochemical; settings: LRRKtide to phospho-LRRKtide conversion, RapidFire MS, 2 mM ATP
T1 construct: made in house; host or cells: HEK293 6E cells transduced with BacMam virus (virus generated in Sf9 cells)
T1 sequence (Q5S007 with tags, fused parts or gaps R50H): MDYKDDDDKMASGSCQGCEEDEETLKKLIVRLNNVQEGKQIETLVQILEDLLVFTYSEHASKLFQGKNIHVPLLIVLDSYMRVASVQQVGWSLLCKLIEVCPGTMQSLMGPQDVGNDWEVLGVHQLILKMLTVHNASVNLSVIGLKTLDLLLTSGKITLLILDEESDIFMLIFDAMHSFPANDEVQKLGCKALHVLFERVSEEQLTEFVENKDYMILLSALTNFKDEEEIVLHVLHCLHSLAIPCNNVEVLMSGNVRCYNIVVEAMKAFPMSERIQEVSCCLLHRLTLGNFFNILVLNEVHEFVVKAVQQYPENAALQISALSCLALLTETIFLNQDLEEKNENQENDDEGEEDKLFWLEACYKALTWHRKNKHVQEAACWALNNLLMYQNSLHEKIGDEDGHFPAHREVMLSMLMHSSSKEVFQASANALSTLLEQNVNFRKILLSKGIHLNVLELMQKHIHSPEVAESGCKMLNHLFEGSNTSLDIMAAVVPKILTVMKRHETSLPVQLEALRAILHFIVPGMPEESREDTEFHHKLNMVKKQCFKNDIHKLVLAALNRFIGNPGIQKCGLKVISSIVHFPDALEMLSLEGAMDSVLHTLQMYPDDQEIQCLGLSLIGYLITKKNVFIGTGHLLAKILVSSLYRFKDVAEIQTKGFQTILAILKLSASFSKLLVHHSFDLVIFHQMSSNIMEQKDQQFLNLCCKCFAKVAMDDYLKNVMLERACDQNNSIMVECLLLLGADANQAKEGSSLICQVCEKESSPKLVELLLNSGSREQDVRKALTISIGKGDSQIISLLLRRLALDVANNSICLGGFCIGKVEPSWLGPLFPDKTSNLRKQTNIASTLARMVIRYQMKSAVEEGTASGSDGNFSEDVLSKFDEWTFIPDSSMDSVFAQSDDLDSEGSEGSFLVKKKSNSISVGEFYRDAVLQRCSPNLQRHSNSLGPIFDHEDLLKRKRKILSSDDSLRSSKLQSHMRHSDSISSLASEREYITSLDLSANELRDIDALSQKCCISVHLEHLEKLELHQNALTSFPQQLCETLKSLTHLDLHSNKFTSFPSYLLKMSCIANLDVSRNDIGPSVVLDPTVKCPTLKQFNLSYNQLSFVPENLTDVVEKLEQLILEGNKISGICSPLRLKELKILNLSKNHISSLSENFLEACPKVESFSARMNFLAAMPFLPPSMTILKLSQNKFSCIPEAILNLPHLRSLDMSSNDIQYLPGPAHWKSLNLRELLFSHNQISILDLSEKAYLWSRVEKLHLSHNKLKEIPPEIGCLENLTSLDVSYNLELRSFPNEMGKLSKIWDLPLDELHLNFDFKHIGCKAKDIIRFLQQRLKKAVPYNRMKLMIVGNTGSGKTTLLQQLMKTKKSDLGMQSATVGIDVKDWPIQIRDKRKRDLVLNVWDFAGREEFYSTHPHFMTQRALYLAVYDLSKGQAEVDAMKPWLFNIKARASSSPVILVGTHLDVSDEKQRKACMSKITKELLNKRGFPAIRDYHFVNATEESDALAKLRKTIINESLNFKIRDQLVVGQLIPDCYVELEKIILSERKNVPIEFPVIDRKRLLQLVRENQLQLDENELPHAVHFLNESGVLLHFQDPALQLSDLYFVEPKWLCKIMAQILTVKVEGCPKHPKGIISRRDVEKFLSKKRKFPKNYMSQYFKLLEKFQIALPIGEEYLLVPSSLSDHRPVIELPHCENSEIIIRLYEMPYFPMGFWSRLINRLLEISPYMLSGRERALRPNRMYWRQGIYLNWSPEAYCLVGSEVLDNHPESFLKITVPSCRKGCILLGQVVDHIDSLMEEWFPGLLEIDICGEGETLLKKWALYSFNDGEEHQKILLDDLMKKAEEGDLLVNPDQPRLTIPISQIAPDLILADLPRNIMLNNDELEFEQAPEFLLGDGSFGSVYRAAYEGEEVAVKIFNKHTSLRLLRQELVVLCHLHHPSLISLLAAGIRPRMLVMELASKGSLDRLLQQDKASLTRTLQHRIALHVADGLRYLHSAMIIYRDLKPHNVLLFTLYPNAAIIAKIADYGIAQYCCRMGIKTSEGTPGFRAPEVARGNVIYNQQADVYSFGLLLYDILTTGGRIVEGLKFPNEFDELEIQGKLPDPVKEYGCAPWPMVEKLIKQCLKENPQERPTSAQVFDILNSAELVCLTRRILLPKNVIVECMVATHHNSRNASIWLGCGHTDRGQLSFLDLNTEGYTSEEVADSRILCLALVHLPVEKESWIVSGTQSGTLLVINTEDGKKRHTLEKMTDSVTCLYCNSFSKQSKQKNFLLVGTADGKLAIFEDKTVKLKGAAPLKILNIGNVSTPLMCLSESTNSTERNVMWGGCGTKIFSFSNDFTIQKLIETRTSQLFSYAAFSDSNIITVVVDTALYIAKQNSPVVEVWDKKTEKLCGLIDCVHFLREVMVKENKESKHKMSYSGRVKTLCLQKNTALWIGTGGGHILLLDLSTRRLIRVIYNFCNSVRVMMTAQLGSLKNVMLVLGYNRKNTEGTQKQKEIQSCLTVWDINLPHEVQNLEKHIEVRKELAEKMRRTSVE
Outline: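 Inhibition taken as reduced LRRKtide phosphorylation, quantified by RapidFire-coupled triple-quadrupole MS as product/(product+substrate) peak area. Reaction: 2 mM ATP, 25 μM peptide, ~25 nM full-length G2019 Flag-LRRK2, Hepes pH 7.2 buffer, room temperature for 1 h. 11-point 1-in-4 dilutions from 100 μM; logistic fit gives IC50, reported as pIC50.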

[2] = molecular target: T2, LRRK2 kinase in SH-SY5Y cells over-expressing recombinant full length LRRK2 (Homo sapiens, UniProt Q5S007); assay: Recombinant cellular LRRK2 AlphaScreen assay (LRRK2 Ser935 phosphorylation); assay type: cell-based; settings: 60 min
T2 construct: A BacMam virus expressing full length recombinant LRRK2 was purchased from Invitrogen; host or cells: SH-SY5Y human neuroblastoma cells transduced with BacMam LRRK2 virus
T2 sequence (Q5S007 whole entry): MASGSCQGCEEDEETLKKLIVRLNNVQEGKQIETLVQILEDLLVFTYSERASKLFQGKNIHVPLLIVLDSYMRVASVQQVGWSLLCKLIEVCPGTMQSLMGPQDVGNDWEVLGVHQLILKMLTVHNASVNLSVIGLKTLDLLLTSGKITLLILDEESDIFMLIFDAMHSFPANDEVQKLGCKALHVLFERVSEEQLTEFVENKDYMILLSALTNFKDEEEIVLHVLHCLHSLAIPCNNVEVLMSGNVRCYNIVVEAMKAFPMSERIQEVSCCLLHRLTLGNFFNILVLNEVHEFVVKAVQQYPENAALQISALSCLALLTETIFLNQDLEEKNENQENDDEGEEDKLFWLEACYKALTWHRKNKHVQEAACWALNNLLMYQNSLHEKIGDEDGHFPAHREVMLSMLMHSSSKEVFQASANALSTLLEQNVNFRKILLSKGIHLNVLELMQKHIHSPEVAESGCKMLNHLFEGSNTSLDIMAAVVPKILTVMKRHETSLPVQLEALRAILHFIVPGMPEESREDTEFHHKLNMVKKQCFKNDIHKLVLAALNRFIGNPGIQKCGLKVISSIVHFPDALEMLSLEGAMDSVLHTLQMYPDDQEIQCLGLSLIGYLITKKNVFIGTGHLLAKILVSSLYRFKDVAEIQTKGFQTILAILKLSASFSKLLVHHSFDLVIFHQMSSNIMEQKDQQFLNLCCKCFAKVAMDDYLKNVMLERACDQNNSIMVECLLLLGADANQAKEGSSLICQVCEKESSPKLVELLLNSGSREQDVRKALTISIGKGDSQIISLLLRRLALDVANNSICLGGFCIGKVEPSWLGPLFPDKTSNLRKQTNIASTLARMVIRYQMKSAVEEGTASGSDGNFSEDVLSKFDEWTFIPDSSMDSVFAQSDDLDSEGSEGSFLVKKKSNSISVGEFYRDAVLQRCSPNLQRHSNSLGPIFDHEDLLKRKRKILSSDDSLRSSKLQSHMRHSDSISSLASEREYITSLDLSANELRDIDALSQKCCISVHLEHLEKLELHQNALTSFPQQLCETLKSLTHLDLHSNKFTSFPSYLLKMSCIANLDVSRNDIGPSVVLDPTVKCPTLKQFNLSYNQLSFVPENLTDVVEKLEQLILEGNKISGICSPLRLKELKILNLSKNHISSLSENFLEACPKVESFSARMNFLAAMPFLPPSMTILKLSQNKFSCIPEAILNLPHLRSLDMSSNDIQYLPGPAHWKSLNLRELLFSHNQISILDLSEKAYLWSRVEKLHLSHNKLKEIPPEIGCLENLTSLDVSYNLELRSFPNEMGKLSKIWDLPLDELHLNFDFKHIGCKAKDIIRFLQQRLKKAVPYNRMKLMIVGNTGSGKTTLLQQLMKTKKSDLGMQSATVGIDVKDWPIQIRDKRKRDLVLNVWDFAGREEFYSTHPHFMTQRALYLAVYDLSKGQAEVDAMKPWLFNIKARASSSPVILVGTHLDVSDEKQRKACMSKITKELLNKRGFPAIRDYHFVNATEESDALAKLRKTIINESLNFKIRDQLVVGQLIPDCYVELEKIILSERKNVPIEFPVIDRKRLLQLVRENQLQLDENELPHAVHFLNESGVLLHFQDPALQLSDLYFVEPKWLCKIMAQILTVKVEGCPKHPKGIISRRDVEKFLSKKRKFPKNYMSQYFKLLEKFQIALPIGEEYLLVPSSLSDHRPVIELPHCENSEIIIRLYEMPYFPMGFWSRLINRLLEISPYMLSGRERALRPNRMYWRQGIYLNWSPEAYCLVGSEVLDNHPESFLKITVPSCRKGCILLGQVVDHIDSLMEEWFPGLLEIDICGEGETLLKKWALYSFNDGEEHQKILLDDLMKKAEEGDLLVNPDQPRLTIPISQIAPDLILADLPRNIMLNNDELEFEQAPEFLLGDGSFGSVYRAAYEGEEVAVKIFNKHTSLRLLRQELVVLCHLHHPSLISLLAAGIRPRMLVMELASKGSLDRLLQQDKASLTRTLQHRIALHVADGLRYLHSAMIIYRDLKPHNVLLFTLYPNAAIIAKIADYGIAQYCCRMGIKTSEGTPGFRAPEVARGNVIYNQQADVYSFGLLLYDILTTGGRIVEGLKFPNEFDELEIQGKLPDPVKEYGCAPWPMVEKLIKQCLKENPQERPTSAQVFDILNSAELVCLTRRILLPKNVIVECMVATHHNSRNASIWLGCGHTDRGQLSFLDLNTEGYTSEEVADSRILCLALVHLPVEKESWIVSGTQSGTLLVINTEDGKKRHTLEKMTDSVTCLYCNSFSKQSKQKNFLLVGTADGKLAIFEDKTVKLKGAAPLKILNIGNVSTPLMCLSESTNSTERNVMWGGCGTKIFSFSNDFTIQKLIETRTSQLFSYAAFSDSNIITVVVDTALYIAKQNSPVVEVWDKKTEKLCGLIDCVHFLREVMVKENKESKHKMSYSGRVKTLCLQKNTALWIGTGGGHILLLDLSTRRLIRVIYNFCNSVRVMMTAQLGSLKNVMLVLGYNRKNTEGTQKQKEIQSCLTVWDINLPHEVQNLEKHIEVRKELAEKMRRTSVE
Outline: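 Read-out is AlphaScreen of LRRK2 pSer935 over total LRRK2 in lysates of SH-SY5Y cells over-expressing full-length LRRK2 via BacMam (24 h transduction). Cells were exposed 60 min at 37 °C to an 11-point 1-in-4 dilution series starting at 10 uM; sigmoidal fit.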

| SMILES | pIC50 [1] | pIC50 [2] |
| --- | --- | --- |
| C=C(C)c1cnc2nc1NCCCOc1nn(C3CCOCC3)c(C)c1N2 [E429, 4-Methyl-5-(oxan-4-yl)-14-(prop-1-en-2-yl)-8-oxa-2,5,6,12,16,17-hexaazatricyclo[11.3.1.0^3,7]heptadeca-1(16),3,6,13(17),14-pentaene] | ≥ 5.00 | < 5.00 |
| COC1CNc2nc(ncc2Cl)Nc2c(nn(C3COC3)c2C)OC1 (single isomer, unassigned) [E270, 14-Chloro-10-methoxy-4-methyl-5-(oxetan-3-yl)-8-oxa-2,5,6,12,16,17-hexaazatricyclo[11.3.1.0^3,7]heptadeca-1(16),3,6,13(17),14-pentaene] | ≥ 7.00 | ≥ 7.00 |
| Cc1c2c(nn1CCN1CCC(F)C1)OCCC(C)Nc1nc(ncc1Cl)N2 (single isomer, unassigned) [E218, 14-Chloro-5-[2-(3-fluoropyrrolidin-1-yl)ethyl]-4,11-dimethyl-8-oxa-2,5,6,12,16,17-hexaazatricyclo [11.3.1.0^3,7] heptadeca-1(16),3,6,13(17),14-pentaene] | ≥ 7.00 | ≥ 7.00 |
| COC1CNc2nc(ncc2C(F)(F)F)Nc2c(nn(C3CCOCC3)c2C)OC1 (single isomer, unassigned) [E121, 10-methoxy-4-methyl-5-(oxan-4-yl)-14-(trifluoromethyl)-8-oxa-2,5,6,12,16,17-hexaazatricyclo[11.3.1.0^3,7] heptadeca-1(16),3,6,13(17),14-pentaene] | ≥ 7.00 | ≥ 7.00 |
| Cc1c2c(nn1C1CCOCC1(F)F)OCCCNc1nc(ncc1Cl)N2 (single isomer, unassigned) [E415] | ≥ 7.00 | ≥ 7.00 |
| Cc1[nH]nc2c1Nc1ncc(Br)c(n1)NCCCO2 [E432, 14-Bromo-4-methyl-8-oxa-2,5,6,12,16,17-hexaazatricyclo[11.3.1.0^3,7]heptadeca-1(16),3,6,13(17),14-pentaene] | ≥ 7.00 | ≥ 7.00 |
| CCc1[nH]nc2c1Nc1ncc(Cl)c(n1)N[C@H](C)CCO2 [E430, (11R)-14-Chloro-4-ethyl-11-methyl-8-oxa-2,5,6,12,16,17-hexaazatricyclo[11.3.1.0^3,7]heptadeca-1(16),3,6,13(17),14-entaene] | ≥ 7.00 | ≥ 7.00 |
| C=Cc1cnc2nc1N[C@H](C)CCOc1nn(C3CCOCC3)c(C)c1N2 [E389, (11R)-14-Ethenyl-4,11-dimethyl-5-(oxan-4-yl)-8-oxa-2,5,6,12,16,17-hexaazatricyclo[11.3.1.0^3,7]heptadeca-1(16)53,6,13(17),14-pentaene] | ≥ 7.00 | ≥ 7.00 |
| Cc1c2c(nn1C1CCOCC1)OCCCNc1nc(ncc1C(C)C)N2 [E428, 4-Methyl-5-(oxan-4-yl)-14-(propan-2-yl)-8-oxa-2,5,6,12,16,17-hexaazatricyclo[11.3.1.0^3,7]heptadeca-1(16),3,6,13(17),14-pentaene] | ≥ 5.00 | < 5.00 |
| C[C@@H]1CCOc2n[nH]c(Cl)c2Nc2ncc(Cl)c(n2)N1 [E397, (11R)-4,14-Dichloro-11-methyl-8-oxa-2,5,6,12,16,17-hexaazatricyclo[11.3.1.0^3,7]heptadeca-1(16),3,6,13(17),14-pentaene] | ≥ 7.00 | ≥ 7.00 |
| Cc1c2c(nn1C1CCOCC1)OCCCOc1nc(ncc1C(F)(F)F)N2 [E117, 4-Methyl-5-(oxan-4-yl)-14-(trifluoromethyl)-8,12-dioxa-2,5,6, 16,17-pentaazatricyclo[11.3.1.0^3,7]heptadeca-1(16),3,6,13(17),14-pentaene] | ≥ 7.00 | ≥ 7.00 |
| COC1CNc2nc(ncc2Cl)Nc2c(nn(C3CCC(C(F)(F)F)CC3)c2C)OC1 (single isomer, unassigned) [E278, 14-Chloro-10-methoxy-4-methyl-5-[4-(trifluoromethyl)cyclohexyl]-8-oxa-2,5,6,12,16,17-hexaazatricyclo [11.3. 1.0^3,7]heptadeca-1(16),3,6,13(17),14-pentaene] | ≥ 7.00 | ≥ 7.00 |
| CCOC(=O)C(C)(C)n1nc2c(c1C)Nc1ncc(Cl)c(n1)NCCCO2 [E188] | ≥ 7.00 | ≥ 7.00 |

Further lines, results first:

| pIC50 [1] | pIC50 [2] | SMILES |
| --- | --- | --- |
| ≥ 7.00 | ≥ 7.00 | C[C@@H]1CCOc2nn(C3CCOCC3)c(C(F)(F)F)c2Nc2ncc(Cl)c(n2)N1 [E416, (11R)-14-Chloro-11-methyl-5-(oxan-4-yl)-4-(trifluoromethyl)-8-oxa-2,5,6,12,16,17-hexaazatricyclo[11.3.1.0^3,7]heptadeca-1(16),3,6,13(17),14-pentaene] |
| ≥ 7.00 | ≥ 7.00 | Cc1c2c(nn1C1CCOCC1)OCCCNc1cc(ncc1Cl)N2 [E134, 14-Chloro-4-methyl-5-(oxan-4-yl)-8-oxa-2,5,6,12,16-pentaaza tricyclo[11.3.1.0^3,7]heptadeca-1(16),3,6,13(17),14-pentaene] |
| ≥ 7.00 | ≥ 7.00 | Cc1c2c(nn1[C@@H]1CCOC1)OCC[C@@H](C)Nc1nc(ncc1Cl)N2 [E47, (11R)-14-chloro-4,11-dimethyl-5-[(3R)-oxolan-3-yl]-8-oxa-2,5,6,12,16,17-hexaaza tricyclo [11.3.1.0^3,7]heptadeca-1(16),3,6,13(17),14-pentaene] |
| ≥ 7.00 | ≥ 7.00 | Cc1c2c(nn1C1CCOCC1)OCCC(C)Nc1nc(ncc1Br)N2 (single isomer, unassigned) [E30, 14-bromo-4,11-dimethyl-5-(oxan-4-yl)-8-oxa-2,5,6,12,16,17-hexaaza tricyclo[11.3.1.0^3,7]heptadeca-1(16),3,6,13(17),14-pentaene] |
| ≥ 7.00 | ≥ 7.00 | CCOC1CNc2nc(ncc2Cl)Nc2c(nn(C3CCOCC3)c2C)OC1 (single isomer, unassigned) [E287, 14-Chloro-10-ethoxy-4-methyl-5-(oxan-4-yl)-8-oxa-2,5,6,12,16,17-hexaazatricyclo[11.3.1.0^3,7]heptadeca-1(16),3,6,13(17),14-pentaene] |
| ≥ 7.00 | ≥ 7.00 | Cc1c2c(nn1C1CCC(C)CC1)OCCC(C)Nc1nc(ncc1Cl)N2 (single isomer, unassigned) [E259, 14-Chloro-4,11-dimethyl-5-(4-methylcyclohexyl)-8-oxa-2,5,6,12,16,17-hexaazatricyclo[11.3.1.0^3,7] heptadeca-1(16),3,6,13(17),14-pentaene] |
| ≥ 7.00 | ≥ 7.00 | Cc1c2c(nn1C1CN(C3CCCOC3)C1)OCC[C@@H](C)Nc1nc(ncc1Cl)N2 (stereo partly drawn) [E385, (11R)-14-Chloro-4,11-dimethyl-5[1-(oxan-3-yl)azetidin-3-yl]-8-oxa-2,5,6,12,16,17-hexaazatricyclo[11.3.1.0^3,7]heptadeca-1(16),3,6,13(17),14-pentaene] |
| ≥ 7.00 | ≥ 7.00 | Cc1c2c(nn1C1CN(C3CCOCC3)C1)OCC[C@@H](C)Nc1nc(ncc1Cl)N2 [E365, (11R)-14-Chloro-4,11-dimethyl-5-[1-(oxan-4-yl)azetidin-3-yl]-8-oxa-2,5,6,12,16,17-hexaazatricyclo[11.3.1.0^3,7]heptadeca-1(16), 3,6,13(17),14-pentaene] |
| ≥ 7.00 | ≥ 7.00 | FC1(F)CN(C2COC2)CCC1n1nc2c(c1Cl)Nc1ncc(Cl)c(n1)NCCCO2 (centres unmarked) [E446, 4,14-Dichloro-5[3,3-difluoro-1-(oxetan-3-yl)piperidin-4-yl]-8-oxa-2,5,6,12,16,17-hexaazatricyclo[11.3.1.0^3,7]heptadeca-1(16),3,6,13(17),14-pentaene] |
| ≥ 7.00 | ≥ 7.00 | Cc1c2c(nn1CCN1CCOCC1)OCCC(C)Nc1nc(ncc1Cl)N2 (single isomer, unassigned) [E213, 14-Chloro-4,11-dimethyl-5-[2-(morpholin-4-yl)ethyl]-8-oxa-2,5,6,12,16,17-hexaazatricyclo[11.3.1.0^3,7] heptadeca-1(16),3,6,13(17),14-pentaene] |
| ≥ 7.00 | ≥ 7.00 | Cc1c2c(nn1C1CC3(COC3)C1)OCC[C@@H](C)Nc1nc(ncc1Cl)N2 [E301, (11R)-14-Chloro-4,11-dimethyl-5-{2-oxaspiro[3.3]heptan-6-yl}-8-oxa-2,5,6,12,16,17-hexaazatricyclo[11.3.1.0^3,7]heptadeca-1(17),3,6,13,15-pentaene] |
| ≥ 7.00 | ≥ 7.00 | Cc1[nH]nc2c1Nc1ncc(Cl)c(n1)NCCCO2 [E395, 14-Chloro-4-methyl-8-oxa-2,5,6,12,16,17-hexaazatricyclo [11.3.1.0^3,7]heptadeca-1(16),3,6,13(17),14-pentaene] |
| ≥ 7.00 | ≥ 7.00 | Cc1c2c(nn1C1CCN(C3CCOC3)CC1)OCC[C@@H](C)Nc1nc(ncc1Cl)N2 (stereo partly drawn) [E382, (11R)-14-Chloro-4,11-dimethyl-5-[1-(oxolan-3-yl)piperidin-4-yl]-8-oxa-2,5,6,12,16,17-hexaazatricyclo[11.3.1.0^3,7]heptadeca-1(16),3,6,13(17),14-pentaene] |
| ≥ 7.00 | ≥ 7.00 | Cc1c2c(nn1C1CC(O)C1)OCC[C@@H](C)N(C)c1nc(ncc1Cl)N2 (stereo partly drawn) [E376, 3-[(11R)-14-Chloro-4,11,12-trimethyl-8-oxa-2,5,6,12,16,17-hexaazatricyclo[11.3.1.0^3,7]heptadeca-1(16),3,6,13(17),14-pentaen-5-yl] cyclobutan-1-ol] |
| ≥ 7.00 | ≥ 7.00 | Cc1c2c(nn1C1CC3CCC(C1)O3)OCCCNc1nc(ncc1Cl)N2 (single isomer, unassigned) [E243, 14-Chloro-4-methyl-5-{8-oxabicyclo[3.2.1]octan-3-yl}-8-oxa-2,5,6,12,16,17-hexaazatricyclo[11.3.1.0^3,7] heptadeca-1(16),3,6,13(17),14-pentaene] |
